Values of other authors, collected in patent US20260373193A1, “CARCINOGENESIS REDUCTION WITH PENTAAZA MACROCYLIC RING COMPLEX” (GALERA LABS, LLC, priority 2023, published 2026).

What was measured:
[1] = tested on: colon of rats; conditions: experimental colitis; cited from earlier work
[2] = tested on: radiation-induced oral mucositis; conditions: hamster; cited from earlier work
[3] = tested on: radiation damage; conditions: adult mice; cited from earlier work
[4] = tested on: inflammation; conditions: rat; cited from earlier work
[5] = tested on: collagen-induced arthritis; conditions: rat collagen-induced arthritis; cited from earlier work
[6] = tested on: acute and sub-chronic radiation damage; platinum therapy kidney damage; conditions: mucositis, pulmonary pneumonitis and fibrosis, liver damage; cited from earlier work
[7] = tested on: established tumors; conditions: cited from earlier work

Row | Compound | injury to the colon [1] | radiation-induced oral mucositis [2] | radiation damage, lethal total body irradiation [3] | inflammation [4] | joint disease [5] | overt acute and sub-chronic radiation damage; platinum therapy kidney damage [6] | efficacy of radiation and other therapies [7]
1 | [Cl-].[Cl-].[Mn+2].c1cc2nc(c1)CN[C@@H]1CCCC[C@H]1NCCN[C@@H]1CCCC[C@H]1NC2 [GC4403] | very significantly reduce the injury to the colon of rats | attenuate the radiation damage | attenuate the radiation damage | inhibit inflammation | prevent joint disease | reduce overt acute and sub-chronic radiation damage | enhance the efficacy of radiation and other therapies
2 | CCC(=O)[O-].CCC(=O)[O-].[Mn+2].c1cc2nc(c1)CN[C@H]1CCCC[C@@H]1NCCN[C@H]1CCCC[C@@H]1NC2 [GC4711] |  |  |  |  |  | reduce overt acute and sub-chronic radiation damage | enhance the efficacy of radiation and other therapies
